Laboratory results taken from ChEMBL document CHEMBL4396887, “Five-Membered N-Heterocyclic Scaffolds as Novel Amino Bioisosteres at γ-Aminobutyric Acid (GABA) Type A Receptors and GABA Transporters” (J Med Chem, 2019).
Activity calls are given as the source filed them. No cut-off for these calls is given here.

Tests used:
Type in all cases: cell-based
[1] = species: Homo sapiens; assay: Agonist activity at recombinant human GABA-A alpha3beta2gamma2S receptor transiently expressed in human tsA201 cells at >= 100 uM incubated for 30 mins and measured up to 90 secs by FMP dye based FLIPR membrane potential blue assay
[2] = species: Homo sapiens; assay: Selectivity ratio of IC50 for human GAT1 expressed in Flp-In CHO cells to IC50 for human BGT1 expressed in Flp-In CHO cells
[3] = target: GABA-A receptor; alpha-1/beta-2/gamma-2 (Homo sapiens) (UniProt P14867+P47870+P18507); assay: Agonist activity at recombinant human GABA-A alpha1beta2gamma2S receptor transiently expressed in human tsA201 cells at >= 1000 uM incubated for 30 mins and measured up to 90 secs by FMP dye based FLIPR membrane potential blue assay

O=C(O)C[C@@H]1CCNC1
Activity [1]: Active

NC1=NC(CC(=O)O)CN1 (stereo not drawn)
Ratio IC50 [2]: 14 to 44

C[C@@H]1SC(N)=N[C@@H]1CC(=O)O (relative stereo)
Activity [3]: Active
